From patent publication US12187773B2, “Modified GIP peptide analogues” (Antag Therapeutics ApS, priority 2018, dated 2025)
Where two headings read alike, the source gives them in different places. *1 amine or outer side, *2 acyl side, *3 side chain or, on linkers, in order; H or OH if unused. Where a SMILES comes first, the peptide text is derived from it. Side-chain parts run from the residue outwards. [ ]: non-standard residue; d: D form. The star is where a group is joined. C18 diacid = O=C(O)CCCCCCCCCCCCCCCCC(=O)*; C16 diacid = O=C(O)CCCCCCCCCCCCCCC(=O)*; γGlu = O=C(O)[C@H](CCC(=O)[*:2])N[*:1]; pGlu = O=C1CC[C@@H](C(=O)O)N1; AEEA = NCCOCCOCC(=O)O

Columns and labels:
human GIP receptor = target: T1, human GIP receptor (Homo sapiens, UniProt P48546); experiment: cAMP antagonism (CisBio cAMP Dynamic 2 HTRF assay); format: cell-based; set-up: pCMV-Script vector
T1 sequence (P48546 22-466): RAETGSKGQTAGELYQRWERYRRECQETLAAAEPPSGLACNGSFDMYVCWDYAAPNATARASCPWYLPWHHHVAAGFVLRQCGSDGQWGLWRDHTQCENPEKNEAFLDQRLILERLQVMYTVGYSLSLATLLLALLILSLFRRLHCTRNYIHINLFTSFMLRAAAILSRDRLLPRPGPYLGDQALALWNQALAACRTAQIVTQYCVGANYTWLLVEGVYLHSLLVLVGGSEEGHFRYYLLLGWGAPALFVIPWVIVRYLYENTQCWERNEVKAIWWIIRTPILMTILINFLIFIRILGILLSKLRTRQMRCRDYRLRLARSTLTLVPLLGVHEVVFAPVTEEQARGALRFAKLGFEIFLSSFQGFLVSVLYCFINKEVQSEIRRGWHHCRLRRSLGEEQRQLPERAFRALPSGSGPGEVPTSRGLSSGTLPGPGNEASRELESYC
Procedure, shortened: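 Four-parameter fits of cAMP dose-response gave pIC50. cAMP fall was quantified by HTRF competition, ratio 665/620 nm after 60 min at room temperature, against a cAMP standard curve.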

[1] = Elimination half-life (T1/2) estimated in Göttingen minipigs; format: in vivo
Protocol: 2-3 Göttingen minipigs were subcutaneously administered one of the GIP analogues of the present invention (1-10 nmol/kg, total volume 2-6 mL) and blood samples were collected before and up to 432 hours post subcutaneous administration.) from a central venous catheter. The catheter was flushed with saline and heparin between samples. Blood was collected into cold EDTA tubes, centrifuged and plasma was kept at −20° C. pending analyses.
Concentrations of the acylated GIP(3-30)NH2 or GIP(5-30)NH2 analogues in blood samples from Göttingen minipigs were analyzed by RIA. Analogues' immunoreactivity was determined using antiserum Ab95234, Ab95235, Ab95236, a polyclonal in-house antibody raised in rabbits specific for either the mid region of GIP(1-30)NH2 or amidated C-terminus of GIP(3-30)NH2.
In addition to the hormone analysis, blood concentrations of AT374, 380, 382-385, 392-393 were determined by LC/MS performed by Red Glead Discovery AB, Lund, Sweden. The plasma samples were precipitated by addition of 3 parts ethanol followed by thorough mixing. After centrifugation and dilution of the supernatant, the samples were analyzed by LC-MS/MS and compared with a 9-point calibration curve. The calibration curves were prepared in naïve plasma matrix from Göttingen minipigs.

secretin receptor (SCTR) = target: T2, secretin receptor (SCTR) (Homo sapiens, UniProt P47872); experiment: cAMP assay - selectivity, antagonism at secretin receptor; format: cell-based; conditions: Table 3B; COS-7 cells; agonist secretin
T2 construct: expressed in transfected cells; host or cells: COS-7 (transient)
Protocol: Transient transfected COS-7 cells expressing the either of the GLP1 receptor (GLP1R), GLP2 receptor (GLP2R), glucagon receptor (GcgR) or secretin receptor (SCTR) were seeded in white 96-well plates with a density of 3.5*10^4/well. The day after, the cells were washed twice with Hepes buffered saline (HBS) buffer and incubated with HBS and 1 mM 3-isobutyl-1-methylxanthine (IBMX) for 30 min at 37° C. To test for agonistic properties, ligands were added and incubated for 30 min at 37° C. In order to test for antagonistic properties, the cells were preincubated with the antagonists for 10 min prior to the addition the natural agonist for the expressed receptor (GLP1 for GLP1R expressing cells, GLP2 for GLP2R expressing cells, glucagon for the GcgR and secretin for the SCTR) and subsequent incubated for 20 additional min. […] The HitHunter™ cAMP XS assay (DiscoveRx) was carried out according to the manufacturer's instructions.

[2] = GIPR, Antagonism, nM, Table 3C, CisBio assay
[3] = Table 1C, CisBio, HEK-293 cells
[4] = cAMP antagonism, nM (IC50), Table 1C, CisBio, HEK-293 cells, agonist GIP1-42 at EC50
[5] = Göttingen, minipig, plasma, subcutaneous, Example 1, read-out: T1/2 (converted)
[6] = sc, Table 1B, species not given, unit h, LC/MS in Göttingen minipig plasma for these IDs, subcutaneous 1-10 nmol/kg, read-out: T½ (converted)

T2 sequence (P47872 23-440, species assumed): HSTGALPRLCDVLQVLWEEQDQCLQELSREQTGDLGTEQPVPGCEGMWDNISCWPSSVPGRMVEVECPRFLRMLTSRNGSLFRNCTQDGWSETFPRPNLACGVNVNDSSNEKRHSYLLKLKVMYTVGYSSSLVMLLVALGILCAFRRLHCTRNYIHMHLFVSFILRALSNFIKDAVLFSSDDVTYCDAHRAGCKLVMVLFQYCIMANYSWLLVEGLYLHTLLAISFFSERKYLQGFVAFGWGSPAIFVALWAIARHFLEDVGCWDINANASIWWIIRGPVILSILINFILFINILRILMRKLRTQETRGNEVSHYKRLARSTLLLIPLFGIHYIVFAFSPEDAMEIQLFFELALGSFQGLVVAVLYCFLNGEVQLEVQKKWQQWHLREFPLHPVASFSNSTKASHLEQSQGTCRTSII

| SMILES | IC50 (human GIP receptor; [2]) [nM] | cAMP antagonism, % inhib (human GIP receptor; [3]) [%] | GIPR, Antagonism, % inhib (human GIP receptor; Table 3C, CisBio assay) [%] | IC50 (human GIP receptor; [4]) [nM] | half-life [1, 5] [h] | half-life [1, 6] [h] | Secretin R, Antagonism (secretin receptor (SCTR)) |
| --- | --- | --- | --- | --- | --- | --- | --- |
| CC[C@H](C)[C@H](NC(=O)[C@H](CO)NC(=O)[C@H](Cc1ccc(O)cc1)NC(=O)[C@H](CC(=O)O)NC(=O)[C@H](CO)NC(=O)[C@@H](NC(=O)[C@H](Cc1ccccc1)NC(=O)[C@@H](NC(=O)CNC(=O)[C@@H](N)CO)[C@@H](C)O)[C@@H](C)CC)C(=O)N[C@@H](C)C(=O)N[C@@H](CCSC)C(=O)N[C@@H](CC(=O)O)C(=O)N[C@@H](CCCNC(=N)N)C(=O)N[C@H](C(=O)N[C@@H](CCCCNC(=O)COCCOCCNC(=O)COCCOCCNC(=O)CC[C@H](NC(=O)CCCCCCCCCCCCCCCCC(=O)O)C(=O)O)C(=O)N[C@@H](CCC(N)=O)C(=O)N[C@@H](CCC(N)=O)C(=O)N[C@@H](CC(=O)O)C(=O)N[C@@H](Cc1ccccc1)C(=O)N[C@H](C(=O)N[C@@H](CC(N)=O)C(=O)N[C@@H](Cc1c[nH]c2ccccc12)C(=O)N[C@@H](CC(C)C)C(=O)N[C@@H](CC(C)C)C(=O)N[C@@H](C)C(=O)N[C@@H](CCC(N)=O)C(=O)N[C@@H](CCCNC(=N)N)C(N)=O)C(C)C)[C@@H](C)CC [AT384] (H-SGTFISDYSIAMDRIK([AEEA-AEEA-γGlu-C18 diacid])QQDFVNWLLAQR-NH2; N-terminus assumed) | 54.1 | 97 | 97 | 54.1 | 36 | 36 | No antagonism |
| CC[C@H](C)[C@H](NC(=O)[C@H](CO)NC(=O)[C@H](Cc1ccc(O)cc1)NC(=O)[C@H](CC(=O)O)NC(=O)[C@H](CO)NC(=O)[C@@H](NC(=O)[C@H](Cc1ccccc1)NC(=O)[C@@H](NC(=O)CNC(=O)[C@@H](N)CO)[C@@H](C)O)[C@@H](C)CC)C(=O)N[C@@H](C)C(=O)N[C@@H](CCSC)C(=O)N[C@@H](CC(=O)O)C(=O)N[C@@H](CCCNC(=N)N)C(=O)N[C@H](C(=O)N[C@@H](CCCCNC(=O)CCCCCCCCCCCCCCCCC(=O)O)C(=O)N[C@@H](CCC(N)=O)C(=O)N[C@@H](CCC(N)=O)C(=O)N[C@@H](CC(=O)O)C(=O)N[C@@H](Cc1ccccc1)C(=O)N[C@H](C(=O)N[C@@H](CC(N)=O)C(=O)N[C@@H](Cc1c[nH]c2ccccc12)C(=O)N[C@@H](CC(C)C)C(=O)N[C@@H](CC(C)C)C(=O)N[C@@H](C)C(=O)N[C@@H](CCC(N)=O)C(=O)N[C@@H](CCCNC(=N)N)C(N)=O)C(C)C)[C@@H](C)CC [AT393] (H-SGTFISDYSIAMDRIK(C18 diacid)QQDFVNWLLAQR-NH2; N-terminus assumed) | 33.5 | 78 | 78 | 33.5 | 25 | 25 | No antagonism |
| CC[C@H](C)[C@H](NC(=O)[C@H](CO)NC(=O)[C@H](Cc1ccc(O)cc1)NC(=O)[C@H](CC(=O)O)NC(=O)[C@H](CO)NC(=O)[C@@H](NC(=O)[C@H](Cc1ccccc1)NC(=O)[C@@H](NC(=O)CNC(=O)[C@@H](N)CO)[C@@H](C)O)[C@@H](C)CC)C(=O)N[C@@H](C)C(=O)N[C@@H](CCSC)C(=O)N[C@@H](CC(=O)O)C(=O)N[C@@H](CCCNC(=N)N)C(=O)N[C@H](C(=O)N[C@@H](CCCCNC(=O)COCCOCCNC(=O)COCCOCCNC(=O)COCCOCCNC(=O)CC[C@H](NC(=O)CCCCCCCCCCCCCCC(=O)O)C(=O)O)C(=O)N[C@@H](CCC(N)=O)C(=O)N[C@@H](CCC(N)=O)C(=O)N[C@@H](CC(=O)O)C(=O)N[C@@H](Cc1ccccc1)C(=O)N[C@H](C(=O)N[C@@H](CC(N)=O)C(=O)N[C@@H](Cc1c[nH]c2ccccc12)C(=O)N[C@@H](CC(C)C)C(=O)N[C@@H](CC(C)C)C(=O)N[C@@H](C)C(=O)N[C@@H](CCC(N)=O)C(=O)N[C@@H](CCCNC(=N)N)C(N)=O)C(C)C)[C@@H](C)CC [AT383] (H-SGTFISDYSIAMDRIK([AEEA-AEEA-AEEA-γGlu-C16 diacid])QQDFVNWLLAQR-NH2; N-terminus assumed) | 12.6 | 89 | 89 | 12.6 |  | 12 | No antagonism |
| CC[C@H](C)[C@H](NC(=O)[C@H](CO)NC(=O)[C@H](Cc1ccc(O)cc1)NC(=O)[C@H](CC(=O)O)NC(=O)[C@H](CO)NC(=O)[C@@H](NC(=O)[C@H](Cc1ccccc1)NC(=O)[C@@H](NC(=O)CNC(=O)[C@@H]1CCC(=O)N1)[C@@H](C)O)[C@@H](C)CC)C(=O)N[C@@H](C)C(=O)N[C@@H](CCSC)C(=O)N[C@@H](CC(=O)O)C(=O)N[C@@H](CCCNC(=N)N)C(=O)N[C@H](C(=O)N[C@@H](CCCCNC(=O)COCCOCCNC(=O)COCCOCCNC(=O)COCCOCCNC(=O)CC[C@H](NC(=O)CCCCCCCCCCCCCCCCC(=O)O)C(=O)O)C(=O)N[C@@H](CCC(N)=O)C(=O)N[C@@H](CCC(N)=O)C(=O)N[C@@H](CC(=O)O)C(=O)N[C@@H](Cc1ccccc1)C(=O)N[C@H](C(=O)N[C@@H](CC(N)=O)C(=O)N[C@@H](Cc1c[nH]c2ccccc12)C(=O)N[C@@H](CC(C)C)C(=O)N[C@@H](CC(C)C)C(=O)N[C@@H](C)C(=O)N[C@@H](CCC(N)=O)C(=O)N[C@@H](CCCNC(=N)N)C(N)=O)C(C)C)[C@@H](C)CC [AT382] ([pGlu]GTFISDYSIAMDRIK([AEEA-AEEA-AEEA-γGlu-C18 diacid])QQDFVNWLLAQR-NH2) | 25.1 | 83 | 83 | 25.1 | 29 | 29 | No antagonism |
| CC[C@H](C)[C@H](NC(=O)[C@H](CO)NC(=O)[C@H](Cc1ccc(O)cc1)NC(=O)[C@H](CC(=O)O)NC(=O)[C@H](CO)NC(=O)[C@@H](NC(=O)[C@H](Cc1ccccc1)NC(=O)[C@@H](NC(=O)CNC(=O)[C@@H](N)CO)[C@@H](C)O)[C@@H](C)CC)C(=O)N[C@@H](C)C(=O)N[C@@H](CCSC)C(=O)N[C@@H](CC(=O)O)C(=O)N[C@@H](CCCNC(=N)N)C(=O)N[C@H](C(=O)N[C@@H](CCCCNC(=O)COCCOCCNC(=O)COCCOCCNC(=O)COCCOCCNC(=O)CC[C@H](NC(=O)CCCCCCCCCCCCCCCCC(=O)O)C(=O)O)C(=O)N[C@@H](CCC(N)=O)C(=O)N[C@@H](CCC(N)=O)C(=O)N[C@@H](CC(=O)O)C(=O)N[C@@H](Cc1ccccc1)C(=O)N[C@H](C(=O)N[C@@H](CC(N)=O)C(=O)N[C@@H](Cc1c[nH]c2ccccc12)C(=O)N[C@@H](CC(C)C)C(=O)N[C@@H](CC(C)C)C(=O)N[C@@H](C)C(=O)N[C@@H](CCC(N)=O)C(=O)N[C@@H](CCCNC(=N)N)C(N)=O)C(C)C)[C@@H](C)CC [AT385] (H-SGTFISDYSIAMDRIK([AEEA-AEEA-AEEA-γGlu-C18 diacid])QQDFVNWLLAQR-NH2; N-terminus assumed) | 43 | 70 | 70 | 43 | 20 | 20 | No antagonism |
